Assay results as given in patent US20070207946A1, “Dipeptidyl peptidase IV inhibitors and their uses for lowering blood pressure levels” (priority 2001, published 2007).
Counter-ions that a name gives are not always drawn. Like-named read-outs stand apart in the source and are kept apart here.

Key:
[1] = target: T1, Prolidase from porcine kidney (Sus scrofa, UniProt A0A5G2QQV1); assay: Cross reacting enzymes - prolidase; format: biochemical; details: substrate Ile-Pro-OH, pH 7.6, read-out: IC50 against prolidase
T1 construct: Prolidase from porcine kidney (ICN Biomedicals, Eschwege, Germany); purchased ICN Biomedicals, Eschwege, Germany; host or cells: porcine kidney
T1 sequence (A0A5G2QQV1 1-463): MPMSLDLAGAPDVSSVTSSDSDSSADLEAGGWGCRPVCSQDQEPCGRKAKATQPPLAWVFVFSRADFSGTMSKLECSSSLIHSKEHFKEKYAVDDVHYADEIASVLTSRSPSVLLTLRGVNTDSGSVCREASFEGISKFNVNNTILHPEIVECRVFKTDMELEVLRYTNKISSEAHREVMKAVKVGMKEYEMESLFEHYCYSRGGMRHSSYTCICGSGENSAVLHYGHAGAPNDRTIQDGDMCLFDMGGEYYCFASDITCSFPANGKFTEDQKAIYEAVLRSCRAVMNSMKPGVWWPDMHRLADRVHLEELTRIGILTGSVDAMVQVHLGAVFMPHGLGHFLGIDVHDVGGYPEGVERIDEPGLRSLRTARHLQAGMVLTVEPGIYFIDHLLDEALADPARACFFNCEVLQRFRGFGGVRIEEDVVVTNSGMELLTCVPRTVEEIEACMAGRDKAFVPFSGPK
Procedure: Prolidase (EC 3.4.13.9) was first described by Bergmann & Fruton (Bergmann, M. & Fruton, J S, 1937, J. Biol. Chem. 189-202). Prolidase releases the N-terminal amino acid from Xaa-Pro dipeptides and has a pH optimum between 6 and 9.
Prolidase from porcine kidney (ICN Biomedicals, Eschwege, Germany) was solved (1 mg/ml) in assay buffer (20 mM NH4(CH3COO)2, 3 mM MnCl2, pH 7.6). In order to get a fully active enzyme the solution was incubated for 60 min at room temperature.
450 μl glutaminyl pyrrolidine or glutaminyl thiazolidine in an concentration range of 5*10^−3 M-5*10^−7 M were admixed with 500 μl buffer solution (20 mM NH4(CH3COO)2, pH 7.6) and 250 μl Ile-Pro-OH (0.5 mM in the assay, mixture). The assay mixture was pre-incubated at 30° C. for 5 min. After pre-incubation, 75 μl Prolidase (1:10 diluted in assay buffer) were added and measurement was performed at 30° C. and λ=220 nm for 20 min using a UV/Vis photometer, UV1 (Thermo Spectronic, Cambridge, UK).
The IC 50-values were calculated using Graphit 4.0.15 (Erithacus Software, Ltd., UK).

[2] = target: T2, plasma DPIV activity (Rattus norvegicus, UniProt P14740); assay: DPIV inhibiting activity after intravasal and oral administration to Wistar rats; format: in vivo; details: rat
T2 construct: from tissue; host or cells: plasma of Wistar rats
T2 sequence (P14740 38-767 limits assumed): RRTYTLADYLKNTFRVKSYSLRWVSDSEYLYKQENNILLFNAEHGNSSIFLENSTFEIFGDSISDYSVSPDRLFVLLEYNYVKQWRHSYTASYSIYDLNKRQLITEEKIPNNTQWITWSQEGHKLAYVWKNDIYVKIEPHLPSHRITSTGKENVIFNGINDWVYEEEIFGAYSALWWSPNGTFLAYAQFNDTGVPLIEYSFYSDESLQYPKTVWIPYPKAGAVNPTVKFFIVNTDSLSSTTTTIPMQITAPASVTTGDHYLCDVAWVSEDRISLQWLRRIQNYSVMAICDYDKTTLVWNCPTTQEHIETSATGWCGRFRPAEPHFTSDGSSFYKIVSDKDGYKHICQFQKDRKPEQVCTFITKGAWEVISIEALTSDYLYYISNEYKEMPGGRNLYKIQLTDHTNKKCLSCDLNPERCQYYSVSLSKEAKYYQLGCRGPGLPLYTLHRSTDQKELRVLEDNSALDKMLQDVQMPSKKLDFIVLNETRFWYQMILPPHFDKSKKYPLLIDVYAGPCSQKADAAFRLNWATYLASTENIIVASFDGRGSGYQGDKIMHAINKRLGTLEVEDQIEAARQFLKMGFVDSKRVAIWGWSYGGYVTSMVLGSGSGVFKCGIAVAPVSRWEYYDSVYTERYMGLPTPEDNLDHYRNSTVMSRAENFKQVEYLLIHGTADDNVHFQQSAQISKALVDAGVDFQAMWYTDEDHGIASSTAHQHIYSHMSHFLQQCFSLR
Procedure: Male Wistar rats (Shoe: Wist(Sho)) with a body weight ranging between 250 and 350 g were purchased from Tierzucht Schönwalde (Schönwalde, Germany).
Animals were single-caged under conventional conditions with controlled temperature (22±2° C.) on a 12/12 hours light/dark cycle (light on at 06:00 AM). Standard pelleted chow (ssniff® Soest, Germany) and tap water acidified with HCl were allowed ad libitum.
After ≧one week of adaptation at the housing conditions, catheters were implanted into the carotid artery of Wistar rats under general anaesthesia (i.p. injection of 0.25 ml/kg b.w. Rompun® [2%], BayerVital, Germany and 0.5 ml/kg b.w. Ketamin 10, Atarost GmbH & Co., Twistringen, Germany). The animals were allowed to recover for one week. The catheters were flushed with heparin-saline (100 IU/ml) three times per week. In case of catheter dysfunction, a second catheter was inserted into the contra-lateral carotid artery of the respective rat. After one week of recovery from surgery, this animal was reintegrated into the study. In case of dysfunction of the second catheter, the animal was withdrawn from the study. A new animal was recruited and the experiments were continued in the planned sequence, beginning at least 7 days after catheter implantation.
After overnight fasting, 100 μl samples of heparinised arterial blood were collected at −30, −5, and 0 min. […] In the case of oral administration, an additional volume of 1 ml saline was injected into the arterial catheter. In the case of infra-arterial administration, the catheter was immediately flushed with 30 μl saline and an additional 1 ml of saline was given orally via the feeding tube.
All blood samples were collected into ice cooled Eppendorf tubes (Eppendorf-Netheler-Hinz, Hamburg, Germany) filled with 10 μl 1M sodium citrate buffer (pH 3.0) for plasma DPIV activity measurement. Eppendorf tubes were centrifuged immediately (12000 rpm for 2 min, Hettich Zentrifuge EBA 12, Tuttlingen; Germany): The plasma fractions were stored on ice until analysis or were frozen at −20° C. until analysis. All plasma samples were labelled with the following data:
The assay mixture for determination of plasma DPIV activity consisted of 80 μl reagent and 20 μl plasma sample. […] The DPIV activity was expressed in mU/ml.
All parameters were analysed in a descriptive manner including mean and SD.

[3] = In vivo inactivation of glutaminyl thiazolidine after oral administration to Wistar rats; details: plasma LC/MS
Procedure: Glutaminyl thiazolidine was administered to Wistar rats orally as described in example 9.
After application of placebo or glutaminyl thiazolidine, arterial blood samples were taken at 2.5, 5, 7.5, 10, 15, 20, 40, 60 and 120 min from the carotid catheter of the conscious unrestrained rats to determine the formation of degradation products of glutaminyl thiazolidine.
For analysis, simple solid phase extraction procedure on C18 cartridges was used to isolate the compounds of interest from the plasma. The extracts were analysed using reversed-phase liquid chromatography on Lichrospher 60 RP Select B column hyphenated with tandem mass spectrometry operating in the APCI positive mode. An internal standard method was used for quantification.

[4] = system: fatty (fa/fa) VDF Zucker rats; assay: Chronic oral treatment of fatty Zucker rats - fasting blood glucose; format: in vivo, rat; details: 10 mg/kg oral gavage twice daily, 12 weeks
Procedure: (§1) Animals were housed singly, on a 12 hour light/dark cycle (lights on at 6 am) and allowed access to standard rat food, and water ad libitum.
Every two days, body weight, morning and evening blood glucose, and food and water intake were assessed. Blood samples for glucose determination were acquired from tail bleeds, and measured using a SureStep glucose analyzer (Lifescan Canada Ltd., Burnaby).
(§2) Every four weeks from the start of the experiment, an oral glucose tolerance test (OGTT) was performed: animals were fasted for 18 hours following the 1700 h dosing and administered 1 g/kg glucose orally.

[5] = system: fatty (fa/fa) VDF Zucker rats; assay: Chronic oral treatment of fatty Zucker rats - systolic blood pressure (tail-cuff); format: in vivo, rat; details: 10 mg/kg oral gavage twice daily
Procedure: as §1
Systolic blood pressure was measured weekly using the tail-cuff procedure.

[6] = system: F344 rats; assay: Chronic intragastric infusion via osmotic minipumps over two weeks - blood pressure; format: in vivo, rat
Procedure: Reduced expression of the ectopeptidase DPIV and lack of DPIV-like activity in mutant F344 rats lacking DPIV enzymic activity and expression results in a lowered blood pressure. Mutant F344 substrains lacking DPIV enzymic activity and wild-type-like F344 were tested.

[7] = Circulating half-life; format: in vivo; details: 18 hours following dosing
Procedure: as §2

[8] = target: T3, PepT1 (Oryctolagus cuniculus, UniProt P36836); assay: Inhibition of binding of 3H-D-Phe-Ala to PepT1-expressing P. pastoris cells; details: read-out: EC50: concentration inhibiting the binding of 3H-D-Phe-Ala to PepT1-expressing P. pastoris cells by 50%
T3 sequence (P36836 1-707): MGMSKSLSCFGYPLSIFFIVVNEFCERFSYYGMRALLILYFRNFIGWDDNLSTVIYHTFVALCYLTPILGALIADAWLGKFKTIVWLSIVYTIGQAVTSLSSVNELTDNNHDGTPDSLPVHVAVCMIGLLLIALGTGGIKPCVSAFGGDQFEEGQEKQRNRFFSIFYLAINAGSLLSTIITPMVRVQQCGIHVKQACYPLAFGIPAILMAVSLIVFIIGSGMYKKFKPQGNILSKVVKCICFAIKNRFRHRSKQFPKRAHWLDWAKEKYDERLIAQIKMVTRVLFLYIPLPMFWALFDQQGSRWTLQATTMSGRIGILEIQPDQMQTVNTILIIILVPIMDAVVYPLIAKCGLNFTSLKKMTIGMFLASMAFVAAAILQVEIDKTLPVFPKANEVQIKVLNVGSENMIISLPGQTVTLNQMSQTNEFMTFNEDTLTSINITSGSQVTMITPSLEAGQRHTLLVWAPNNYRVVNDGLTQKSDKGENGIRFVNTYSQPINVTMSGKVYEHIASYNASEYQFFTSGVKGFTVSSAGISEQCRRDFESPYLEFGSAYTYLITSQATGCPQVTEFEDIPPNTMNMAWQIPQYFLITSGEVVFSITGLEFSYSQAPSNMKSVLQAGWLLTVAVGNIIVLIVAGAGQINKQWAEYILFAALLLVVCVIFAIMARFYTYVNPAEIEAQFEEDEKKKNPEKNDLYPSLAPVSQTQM
Excerpt: (§3) Side chain-modified glutamyl thiazolidines having a structure H-Glu(X)-Thia were synthesised, with polyethylene glycol or glycine oligomers of various chain lengths being used as X (see Method A of example for description of synthesis). The binding characteristics of those derivatives and their transportability by the peptide transporter PepT1 were investigated.

[9] = target: T3, PepT1; assay: Transport characteristics at PepT1-expressing oocytes of X. leavis, two-electrode voltage clamp; format: cell-based
Excerpt: as §3

[10] = system: DPIV and DPIV-like enzymatic activity; assay: Inhibition of the DPIV-catalyzed hydrolysis of the incretins GIP1-42 and GLP-17-36 in vitro (pooled human serum, MALDI-TOF); format: biochemical; details: 20 mM inhibitor; 30 mM peptide; 20% pooled serum; pH 7.6; 30° C.; 24 hours
Excerpt: It is possible to suppress the in vitro hydrolysis of incretins caused by DPIV and DPIV-like enzymatic activity using purified enzyme or pooled human serum (FIG. 1).
Samples were cocrystallized using 2′,6′-dihydroxy-acetophenon as matrix and analyzed by MALDI-TOF-mass spectrometry. Spectra (FIG. 1) display accumulations of 250 single laser shots per sample.
In the control assays containing no inhibitor the incretins were almost completely degraded (FIGS. 1b and 1c, both bottom spectra).

[11] = system: Wistar-rats; assay: Insulin and blood glucose responses to glucose after i.v. administration of inhibitor; format: in vivo, rat
Procedure: The test group additionally obtained an infusion of the inhibitor of 0.75 M/min over 30 min experimental time (*). The control group received during the same time interval an infusion of inhibitor-free 0.9% saline solution. At starting time t=0 all animals were administered an i.d. glucose dose of 1 g/kg 40% dextrose solution (w/v). Blood samples were collected of all test animals in 10 min time intervals. Glucose was analyzed using whole blood (Lifescan One Touch II analyzer) while DPIV-activity and insulin concentration were analyzed in plasma. […] All data are presented as mean+/−s.e.m.

Which results are given for `NC(=O)CCC(N)C(=O)N1CCSC1` (centres unmarked) [Gln-Thia, glutaminyl thiazolidine]?
IC50 [1]: > 3000 µM; inhibition at 100 mg/kg ([2]; iv, intra-vasal (intra-arterial) route, read-out: in vivo DPIV-inhibition at tmax, i.v.): 88%; inhibition at 100 mg/kg ([2]; oral, read-out: in vivo DPIV-inhibition at tmax, p.o.): 71%; degradation of the compound in vivo [3]: degradation of the compound was found; degradation product [3]: pyroglutaminyl thiazolidine

With `CC[C@H](C)[C@H](N)C(=O)N1CCSC1` [Isoleucyl thiazolidine fumarate] as the compound, how does the fasting blood glucose [4] read?
Its fasting blood glucose is “dramatic reduction and almost normalization”.

And the systolic blood pressure [5]?
The systolic blood pressure was “stabilization”.

What about the blood pressure [6] of the same compound?
Its blood pressure is “dose-dependently reduced”.

What about the “number of circulating half-lives equivalent to the 18 hours fasting period” value [7] of the same compound?
Its value is ~12 circulating half-lives.

For `CCC(C)C(N)C(=O)N1CCSC1` (centres unmarked) [isoleucyl thiazolidine], which EC50 [8] is on record?
The EC50 was 980 µM.

And the “Imax, inward currents generated by the transport” value [9]?
The value was 25 ± 8 nA.

And the “suppression of the enzyme-catalyzed hydrolysis of GIP1-42 and GLP-17-36” value [10]?
Its value is “complete suppression”.

What about the “circulating glucose concentration after intraduodenal (i.d.) glucose” value ([11]; 0.1 mg per kg, versus untreated controls) of the same compound?
The value was “more rapid reduction”.

What about the “effect on circulating glucose after i.v. administration of the same amount of glucose” value ([11]; inhibitor-treated) of the same compound?
Its value is “no comparable effect”.
